# Measured values reported in publication PMC12749626, “Expediting hit-to-lead progression in drug discovery through reaction prediction and multi-dimensional optimization” (Nature Communications, 2025).
# Columns and labels:
# α1A-ADRENOCEPTOR = α1A-ADRENOCEPTOR (Homo sapiens, UniProt P35348); experiment: biochemical; conditions: read-out: α1A-ADRENOCEPTOR percent activity or inhibition compared to the assay reference
# [1] = Microsomal clearance, human microsomes
# β1-ADRENOCEPTOR = β1-ADRENOCEPTOR (Homo sapiens, UniProt P08588); experiment: biochemical; conditions: read-out: β1-ADRENOCEPTOR percent activity or inhibition compared to the assay reference
# Solubility in 0.05M PO4- = format: physicochemical; conditions: for solubility: 0.05 M phosphate buffer, aqueous buffer
# α2A-ADRENOCEPTOR = α2A-ADRENOCEPTOR (Homo sapiens, UniProt P08913); experiment: biochemical; conditions: read-out: α2A-ADRENOCEPTOR percent activity or inhibition compared to the assay reference
# ZAP70 = ZAP70 (Homo sapiens, UniProt P43403); experiment: biochemical; conditions: read-out: ZAP70 percent activity or inhibition compared to the assay reference
# Sequence of ZAP70 (P43403 whole entry): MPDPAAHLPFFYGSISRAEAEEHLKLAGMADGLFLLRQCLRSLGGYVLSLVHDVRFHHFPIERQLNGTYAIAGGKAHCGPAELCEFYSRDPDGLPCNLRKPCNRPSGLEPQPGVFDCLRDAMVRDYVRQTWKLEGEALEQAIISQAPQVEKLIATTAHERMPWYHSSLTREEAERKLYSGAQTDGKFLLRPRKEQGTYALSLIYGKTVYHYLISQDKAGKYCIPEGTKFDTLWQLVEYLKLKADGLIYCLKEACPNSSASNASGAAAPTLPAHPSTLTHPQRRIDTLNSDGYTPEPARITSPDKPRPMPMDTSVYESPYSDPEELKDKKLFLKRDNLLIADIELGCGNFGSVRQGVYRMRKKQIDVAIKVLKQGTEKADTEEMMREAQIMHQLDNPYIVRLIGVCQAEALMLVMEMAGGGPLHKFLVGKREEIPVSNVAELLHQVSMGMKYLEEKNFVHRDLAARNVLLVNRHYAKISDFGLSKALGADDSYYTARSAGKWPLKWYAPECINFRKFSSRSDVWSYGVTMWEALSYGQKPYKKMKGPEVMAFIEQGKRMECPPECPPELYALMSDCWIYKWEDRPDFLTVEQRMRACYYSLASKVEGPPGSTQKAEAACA
# 5HT1A = 5HT1A (Homo sapiens, UniProt P08908); experiment: biochemical; conditions: read-out: 5HT1A percent activity or inhibition compared to the assay reference
# Sequence of 5HT1A (P08908 whole entry): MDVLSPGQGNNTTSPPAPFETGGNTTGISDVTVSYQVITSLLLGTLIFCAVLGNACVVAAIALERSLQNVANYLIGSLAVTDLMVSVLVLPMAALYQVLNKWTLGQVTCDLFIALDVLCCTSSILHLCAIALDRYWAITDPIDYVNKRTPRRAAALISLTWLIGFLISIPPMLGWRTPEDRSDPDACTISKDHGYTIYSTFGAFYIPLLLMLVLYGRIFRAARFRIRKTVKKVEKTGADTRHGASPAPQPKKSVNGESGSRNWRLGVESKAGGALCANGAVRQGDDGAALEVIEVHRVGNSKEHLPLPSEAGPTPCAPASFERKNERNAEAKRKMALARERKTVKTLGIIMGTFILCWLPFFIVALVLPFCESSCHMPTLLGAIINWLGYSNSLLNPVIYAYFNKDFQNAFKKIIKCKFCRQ
# ACETYLCHOLINESTERASE = ACETYLCHOLINESTERASE (Homo sapiens, UniProt P22303); experiment: biochemical; conditions: read-out: ACETYLCHOLINESTERASE percent activity or inhibition compared to the assay reference
# ABL1 = ABL1 (Homo sapiens, UniProt P00519); experiment: biochemical; conditions: read-out: ABL1 percent activity or inhibition compared to the assay reference
# Sequence of ABL1 (P00519 whole entry): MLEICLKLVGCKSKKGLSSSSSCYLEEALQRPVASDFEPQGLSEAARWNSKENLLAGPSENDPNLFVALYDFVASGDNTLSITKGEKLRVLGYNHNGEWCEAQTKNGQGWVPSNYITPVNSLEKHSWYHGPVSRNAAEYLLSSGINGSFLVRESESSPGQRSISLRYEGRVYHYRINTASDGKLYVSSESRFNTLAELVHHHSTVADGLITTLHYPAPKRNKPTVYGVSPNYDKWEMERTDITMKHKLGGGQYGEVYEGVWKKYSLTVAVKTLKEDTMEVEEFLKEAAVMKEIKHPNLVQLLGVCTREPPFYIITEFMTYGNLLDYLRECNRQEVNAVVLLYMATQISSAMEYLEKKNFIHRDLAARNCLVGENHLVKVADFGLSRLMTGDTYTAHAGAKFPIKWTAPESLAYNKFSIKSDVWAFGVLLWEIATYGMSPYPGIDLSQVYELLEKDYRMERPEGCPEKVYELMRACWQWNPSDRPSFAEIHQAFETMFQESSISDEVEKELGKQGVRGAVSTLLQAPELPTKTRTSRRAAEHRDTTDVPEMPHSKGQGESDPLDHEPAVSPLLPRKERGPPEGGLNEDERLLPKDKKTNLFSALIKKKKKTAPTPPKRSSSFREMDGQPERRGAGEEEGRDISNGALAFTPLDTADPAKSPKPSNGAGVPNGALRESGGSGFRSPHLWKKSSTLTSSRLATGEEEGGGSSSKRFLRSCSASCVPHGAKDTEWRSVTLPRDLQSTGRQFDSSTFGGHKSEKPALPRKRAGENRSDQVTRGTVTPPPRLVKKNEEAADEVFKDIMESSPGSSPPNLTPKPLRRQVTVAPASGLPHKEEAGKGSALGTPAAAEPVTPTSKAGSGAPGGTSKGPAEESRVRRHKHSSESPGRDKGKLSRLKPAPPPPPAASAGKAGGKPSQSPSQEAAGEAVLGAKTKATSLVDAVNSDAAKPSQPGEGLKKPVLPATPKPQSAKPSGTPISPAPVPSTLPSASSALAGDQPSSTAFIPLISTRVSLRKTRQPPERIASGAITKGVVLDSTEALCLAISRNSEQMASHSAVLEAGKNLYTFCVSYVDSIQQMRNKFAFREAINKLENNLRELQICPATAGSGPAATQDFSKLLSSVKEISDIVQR
# A[…]. ENZ. = A[…]. ENZ. (Homo sapiens, UniProt P12821); experiment: biochemical; conditions: read-out: A[…]. ENZ. percent activity or inhibition compared to the assay reference
# CHOLECYSTOKININ 1 REC. = CHOLECYSTOKININ 1 REC. (Homo sapiens, UniProt P32238); experiment: biochemical; conditions: read-out: CHOLECYSTOKININ 1 REC. percent activity or inhibition compared to the assay reference
# Sequence of UniProt P32238 (P32238 whole entry): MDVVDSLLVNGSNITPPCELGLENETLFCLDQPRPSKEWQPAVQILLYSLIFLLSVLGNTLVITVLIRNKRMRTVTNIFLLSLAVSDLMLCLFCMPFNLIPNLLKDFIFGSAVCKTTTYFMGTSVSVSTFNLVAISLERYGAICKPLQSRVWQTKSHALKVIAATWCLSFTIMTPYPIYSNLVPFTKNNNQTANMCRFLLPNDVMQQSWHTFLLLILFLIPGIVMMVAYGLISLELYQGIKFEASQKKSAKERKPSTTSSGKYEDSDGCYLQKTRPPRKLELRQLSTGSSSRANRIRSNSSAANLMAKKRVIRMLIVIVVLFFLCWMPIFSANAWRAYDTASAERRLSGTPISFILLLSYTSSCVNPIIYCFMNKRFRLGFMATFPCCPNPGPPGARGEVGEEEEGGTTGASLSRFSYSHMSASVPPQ
# 5HT2A = 5HT2A (Homo sapiens, UniProt P28223); experiment: biochemical; conditions: read-out: 5HT2A percent activity or inhibition compared to the assay reference
# SEROTONIN TRANSPORTER = SEROTONIN TRANSPORTER (Homo sapiens, UniProt P31645); experiment: biochemical; conditions: read-out: SEROTONIN TRANSPORTER percent activity or inhibition compared to the assay reference
# Sequence of SEROTONIN TRANSPORTER (P31645 whole entry): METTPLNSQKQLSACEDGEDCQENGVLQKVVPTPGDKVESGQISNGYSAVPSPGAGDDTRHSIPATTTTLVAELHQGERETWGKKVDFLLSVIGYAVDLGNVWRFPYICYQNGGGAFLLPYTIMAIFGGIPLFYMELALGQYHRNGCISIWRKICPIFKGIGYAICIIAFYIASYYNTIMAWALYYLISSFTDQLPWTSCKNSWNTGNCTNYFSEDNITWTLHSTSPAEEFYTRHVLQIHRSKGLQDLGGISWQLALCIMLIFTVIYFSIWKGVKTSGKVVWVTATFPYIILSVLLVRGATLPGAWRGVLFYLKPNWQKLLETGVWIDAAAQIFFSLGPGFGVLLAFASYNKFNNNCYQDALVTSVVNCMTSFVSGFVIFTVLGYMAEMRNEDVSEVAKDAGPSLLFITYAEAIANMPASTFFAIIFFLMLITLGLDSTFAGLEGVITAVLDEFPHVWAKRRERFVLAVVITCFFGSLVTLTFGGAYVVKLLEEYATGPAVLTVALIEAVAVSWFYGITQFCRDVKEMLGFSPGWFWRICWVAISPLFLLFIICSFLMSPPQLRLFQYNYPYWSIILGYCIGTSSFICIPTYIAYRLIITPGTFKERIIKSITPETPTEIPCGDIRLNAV
# ANGIOTENSIN II REC. 1 = ANGIOTENSIN II REC. 1 (Homo sapiens, UniProt P30556); experiment: biochemical; conditions: read-out: ANGIOTENSIN II REC. 1 percent activity or inhibition compared to the assay reference
# PHOSPHODIESTERASE 4D2 = PHOSPHODIESTERASE 4D2 (Homo sapiens, UniProt Q08499); experiment: biochemical; conditions: read-out: PHOSPHODIESTERASE 4D2 percent activity or inhibition compared to the assay reference
# HIV-1 PROTEASE = HIV-1 PROTEASE (Human immunodeficiency virus type 1 group M subtype B, UniProt P04585); experiment: biochemical; conditions: read-out: HIV-1 PROTEASE percent activity or inhibition compared to the assay reference
# [2] = Parallel Artificial Membrane Permeability (PAMPA); conditions: for Papp at 18 h, 150 µM: PAMPA, pH 6
# MONOAMINE OXIDASE-A = MONOAMINE OXIDASE-A (Homo sapiens, UniProt P21397); experiment: biochemical; conditions: read-out: MONOAMINE OXIDASE-A percent activity or inhibition compared to the assay reference
# β2-ADRENOCEPTOR = β2-ADRENOCEPTOR (Homo sapiens, UniProt P07550); experiment: biochemical; conditions: read-out: β2-ADRENOCEPTOR percent activity or inhibition compared to the assay reference
# HISTAMINE H1 REC. = HISTAMINE H1 REC. (Homo sapiens, UniProt P35367); experiment: biochemical; conditions: read-out: HISTAMINE H1 REC. percent activity or inhibition compared to the assay reference
# CYP2C9 = CYP2C9 (Homo sapiens, UniProt P11712); experiment: Cytochrome P450 inhibition assay, CYP2C9; conditions: liver microsomes
# [3] = Microsomal clearance, mouse microsomes
# PHOSPHODIESTERASE 3B = PHOSPHODIESTERASE 3B (Homo sapiens, UniProt Q13370); experiment: biochemical; conditions: read-out: PHOSPHODIESTERASE 3B percent activity or inhibition compared to the assay reference
# Sequence of UniProt Q13370 (Q13370 whole entry): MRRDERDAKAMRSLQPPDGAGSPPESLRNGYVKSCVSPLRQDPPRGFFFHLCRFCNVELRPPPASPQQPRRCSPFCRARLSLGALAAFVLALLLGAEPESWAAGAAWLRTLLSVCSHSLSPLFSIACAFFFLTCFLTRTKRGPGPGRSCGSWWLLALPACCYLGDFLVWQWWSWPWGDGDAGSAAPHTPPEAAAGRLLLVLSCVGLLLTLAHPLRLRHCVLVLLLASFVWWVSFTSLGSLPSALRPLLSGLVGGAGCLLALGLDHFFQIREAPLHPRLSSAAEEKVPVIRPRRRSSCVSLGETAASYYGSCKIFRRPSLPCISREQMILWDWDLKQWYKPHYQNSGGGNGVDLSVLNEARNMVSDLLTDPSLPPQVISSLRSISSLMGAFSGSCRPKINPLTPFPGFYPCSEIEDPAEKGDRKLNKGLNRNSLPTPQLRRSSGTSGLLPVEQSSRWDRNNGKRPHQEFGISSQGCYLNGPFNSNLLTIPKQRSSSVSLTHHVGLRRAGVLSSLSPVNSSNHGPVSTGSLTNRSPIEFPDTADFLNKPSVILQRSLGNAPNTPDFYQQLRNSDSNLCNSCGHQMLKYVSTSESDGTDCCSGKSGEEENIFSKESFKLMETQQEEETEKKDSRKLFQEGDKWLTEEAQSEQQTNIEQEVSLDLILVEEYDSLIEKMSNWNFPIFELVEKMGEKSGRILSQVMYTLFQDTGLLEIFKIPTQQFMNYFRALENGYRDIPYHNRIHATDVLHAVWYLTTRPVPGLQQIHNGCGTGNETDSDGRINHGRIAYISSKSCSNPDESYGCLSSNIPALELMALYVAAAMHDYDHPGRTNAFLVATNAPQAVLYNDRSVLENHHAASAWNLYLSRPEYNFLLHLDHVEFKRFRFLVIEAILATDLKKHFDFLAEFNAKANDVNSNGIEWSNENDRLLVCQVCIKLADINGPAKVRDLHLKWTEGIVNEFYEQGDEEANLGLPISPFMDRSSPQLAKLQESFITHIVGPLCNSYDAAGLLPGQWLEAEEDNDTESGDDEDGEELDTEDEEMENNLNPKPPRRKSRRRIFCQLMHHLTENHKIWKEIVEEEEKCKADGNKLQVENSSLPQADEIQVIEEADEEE
# PROSTAGLANDIN F REC. = PROSTAGLANDIN F REC. (Homo sapiens, UniProt P43088); experiment: biochemical; conditions: read-out: PROSTAGLANDIN F REC. percent activity or inhibition compared to the assay reference
# GSK-3B = GSK-3B (Homo sapiens, UniProt P49841); experiment: biochemical; conditions: read-out: GSK-3B percent activity or inhibition compared to the assay reference
# Solubility in FESSIF = format: physicochemical
# GLYCINE REC. = conditions: 10 uM; n=2
# NEURONAL NICOTINIC REC. = conditions: 10 uM; n=2
# MUSCULAR NICOTINIC REC. = conditions: 10 uM; n=2
# CDK2 = CDK2 (Homo sapiens, UniProt P24941); conditions: 10 uM; n=2
# DOPAMINE D2 REC. (short) = DOPAMINE D2 REC. (short) (Homo sapiens, UniProt P14416); conditions: 10 uM; n=2
# HISTAMINE H3 REC. = HISTAMINE H3 REC. (Homo sapiens, UniProt Q9Y5N1); conditions: 10 uM; n=2
# Sequence of UniProt P35348 (P35348 whole entry): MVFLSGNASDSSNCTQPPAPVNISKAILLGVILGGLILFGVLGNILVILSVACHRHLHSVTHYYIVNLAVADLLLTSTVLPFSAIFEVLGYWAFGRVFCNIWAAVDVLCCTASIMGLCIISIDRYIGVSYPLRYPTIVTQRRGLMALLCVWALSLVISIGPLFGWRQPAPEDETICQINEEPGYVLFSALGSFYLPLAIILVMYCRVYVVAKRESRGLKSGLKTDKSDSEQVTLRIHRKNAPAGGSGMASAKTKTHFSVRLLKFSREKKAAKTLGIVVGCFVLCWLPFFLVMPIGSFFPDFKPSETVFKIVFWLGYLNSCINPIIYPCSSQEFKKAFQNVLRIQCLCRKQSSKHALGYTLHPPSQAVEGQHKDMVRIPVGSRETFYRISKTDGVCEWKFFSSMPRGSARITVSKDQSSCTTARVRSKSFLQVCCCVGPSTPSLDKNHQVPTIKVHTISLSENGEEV
Compound,inhibition at 10 µM (α1A-ADRENOCEPTOR) [%],microsomal CLint at 1 µM [1] [µL/min/mg],inhibition at 10 µM (β1-ADRENOCEPTOR) [%],solubility (Solubility in 0.05M PO4-) [µg/mL],inhibition at 10 µM (α2A-ADRENOCEPTOR) [%],inhibition at 10 µM (ZAP70) [%],inhibition at 10 µM (5HT1A) [%],inhibition at 10 µM (ACETYLCHOLINESTERASE) [%],inhibition at 10 µM (ABL1) [%],inhibition at 10 µM (A[…]. ENZ.) [%],inhibition at 10 µM (CHOLECYSTOKININ 1 REC.) [%],inhibition at 10 µM (5HT2A) [%],inhibition at 10 µM (SEROTONIN TRANSPORTER) [%],inhibition at 10 µM (ANGIOTENSIN II REC. 1) [%],inhibition at 10 µM (PHOSPHODIESTERASE 4D2) [%],inhibition at 10 µM (HIV-1 PROTEASE) [%],"Papp at 18 h, 150 µM [2] [×10⁻⁶ cm/s]",inhibition at 10 µM (MONOAMINE OXIDASE-A) [%],inhibition at 10 µM (β2-ADRENOCEPTOR) [%],CYP2C9 Inhibition (CYP2C9) [%],further results
O=C(c1ccc2nc(-c3cccnc3)oc2c1)N1CCN(c2nc3ccccc3c(=O)[nH]2)CC1 [Compound 17],13,10,4,4.2,7,-2,1,3,2,16,-12,7,-5,-3,21,11,4,7,1,2,inhibition at 10 µM (HISTAMINE H1 REC.): 13%; microsomal CLint at 1 µM [3]: 10 µL/min/mg; inhibition at 10 µM (PHOSPHODIESTERASE 3B): 2%; inhibition at 10 µM (PROSTAGLANDIN F REC.): -2%; inhibition at 10 µM (GSK-3B): -21%
O=C(c1ccc2nc(-c3cnccc3C3CCCC3)oc2c1)N1CCN(c2nc3nc(Cl)ccc3o2)CC1 [Compound 23],4,415,2,< 0.05,3,-27,11,-1,-8,-17,9,2,10,11,20,31,4,2,4,45,solubility (Solubility in FESSIF): 1.9 µg/mL; GLYCINE REC. percent activity or inhibition compared to the assay reference (GLYCINE REC.): 7%; NEURONAL NICOTINIC REC. percent activity or inhibition compared to the assay reference (NEURONAL NICOTINIC REC.): -3%; MUSCULAR NICOTINIC REC. percent activity or inhibition compared to the assay reference (MUSCULAR NICOTINIC REC.): 0%; inhibition at 10 µM (HISTAMINE H1 REC.): 11%; microsomal CLint at 1 µM [3]: 176 µL/min/mg; inhibition at 10 µM (PHOSPHODIESTERASE 3B): -8%; inhibition at 10 µM (PROSTAGLANDIN F REC.): -3%; inhibition at 10 µM (GSK-3B): -20%
O=C(c1ccc2nc(-c3cnccc3C3(C4CCC4)CC3)oc2c1)N1CCN(c2nc3nc(Cl)ccc3o2)CC1 [Compound 27],,,,,,,,,,,,,,,,,,,,73,"CDK2 percent activity or inhibition compared to the assay reference (CDK2): 0%; Solubility in 0.05M PO4- (Solubility in 0.05M PO4-): < 0.6 µg/mL; GLYCINE REC. percent activity or inhibition compared to the assay reference (GLYCINE REC.): 3%; NEURONAL NICOTINIC REC. percent activity or inhibition compared to the assay reference (NEURONAL NICOTINIC REC.): -8%; MUSCULAR NICOTINIC REC. percent activity or inhibition compared to the assay reference (MUSCULAR NICOTINIC REC.): 2%; DOPAMINE D2 REC. (short) percent activity or inhibition compared to the assay reference (DOPAMINE D2 REC. (short)): 13%; PAMPA permeability ([2]; donor buffer pH 6.0, 18-hour incubation): 0.9 10^-6 cm/s; HISTAMINE H3 REC. percent activity or inhibition compared to the assay reference (HISTAMINE H3 REC.): 15%"
O=C(c1ccc2nc(-c3cnccc3C3CCCC3)oc2c1)N1CC2(CC(n3cnc(C4CC4)n3)C2)C1 [Compound 29],50,425,7,< 0.05,18,5,19,0,-5,-13,8,10,-11,15,65,31,5.9,0,7,70,"solubility (Solubility in FESSIF): 25 µg/mL; GLYCINE REC. percent activity or inhibition compared to the assay reference (GLYCINE REC.): -2%; NEURONAL NICOTINIC REC. percent activity or inhibition compared to the assay reference (NEURONAL NICOTINIC REC.): 6%; MUSCULAR NICOTINIC REC. percent activity or inhibition compared to the assay reference (MUSCULAR NICOTINIC REC.): 24%; cell permeability ([2]; in words, SI2.2, Fig. S1 (PAMPA vs LipE)): potent cell permeability; inhibition at 10 µM (HISTAMINE H1 REC.): 18%; microsomal CLint at 1 µM [3]: 536 µL/min/mg; inhibition at 10 µM (PHOSPHODIESTERASE 3B): 6%; inhibition at 10 µM (PROSTAGLANDIN F REC.): 21%; inhibition at 10 µM (GSK-3B): -19%"
